Results as given in US9238654B2, “Singleton inhibitors of sumoylation enzymes and methods for their use” (CITY OF HOPE, priority 2010, dated 2016).
Read-outs that look alike come from different tables or passages of the source.

How the values were obtained:
SUMO E1 [1] = biological target: T1, SUMO E1 (Homo sapiens, UniProt Q9UBE0+Q9UBT2); assay: Rate of SUMO~E1 product formation with increasing inhibitor concentrations; format: biochemical
T1 sequence (Q9UBE0 1-346): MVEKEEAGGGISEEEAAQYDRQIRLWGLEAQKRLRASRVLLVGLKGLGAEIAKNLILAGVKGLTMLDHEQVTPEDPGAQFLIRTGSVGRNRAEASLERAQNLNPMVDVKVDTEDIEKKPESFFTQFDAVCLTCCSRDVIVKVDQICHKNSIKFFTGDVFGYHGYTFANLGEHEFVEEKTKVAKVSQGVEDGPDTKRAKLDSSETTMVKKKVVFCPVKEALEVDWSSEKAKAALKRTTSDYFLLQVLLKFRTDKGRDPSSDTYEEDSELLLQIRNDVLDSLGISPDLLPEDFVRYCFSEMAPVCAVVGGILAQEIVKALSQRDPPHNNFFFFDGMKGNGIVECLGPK
T1 sequence (Q9UBT2 1-640): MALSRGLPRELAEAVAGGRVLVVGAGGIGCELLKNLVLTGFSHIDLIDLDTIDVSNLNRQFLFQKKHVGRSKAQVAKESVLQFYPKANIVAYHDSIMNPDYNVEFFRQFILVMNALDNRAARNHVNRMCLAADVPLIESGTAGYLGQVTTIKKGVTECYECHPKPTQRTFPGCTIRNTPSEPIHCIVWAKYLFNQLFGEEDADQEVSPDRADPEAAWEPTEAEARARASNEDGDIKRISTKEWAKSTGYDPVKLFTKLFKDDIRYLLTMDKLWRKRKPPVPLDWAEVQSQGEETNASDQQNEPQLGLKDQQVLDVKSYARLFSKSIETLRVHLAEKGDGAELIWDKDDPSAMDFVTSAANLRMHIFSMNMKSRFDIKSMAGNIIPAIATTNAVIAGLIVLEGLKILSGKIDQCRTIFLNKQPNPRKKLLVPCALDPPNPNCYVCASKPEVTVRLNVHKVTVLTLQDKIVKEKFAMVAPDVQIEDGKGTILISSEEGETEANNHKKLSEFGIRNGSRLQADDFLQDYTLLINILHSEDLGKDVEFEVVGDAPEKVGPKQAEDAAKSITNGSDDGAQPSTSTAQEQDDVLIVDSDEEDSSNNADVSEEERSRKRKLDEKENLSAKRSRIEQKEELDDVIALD
Protocol: Data is analyzed by fitting to a rectangular hyperbolic to extract IC50 (lower left) or the solution to a quadratic equation to determine Ki^app (lower right).
Their inhibitory constants were measured in the reaction to monitor the rate of SUMO˜E1 product formation in the presence of increasing concentrations of inhibitors (FIG. 5). Inhibition studies were performed in both the presence and absence of 0.02% Triton X-100 to ensure against potential promiscuous inhibition by premicelles due to the formation of aggregates. Inhibition data was fit to a rectangular hyperbolic to extract an IC50 (Equation 1). The Ki^app was extracted by fitting the percent inhibition as a function of inhibitor concentration using equations 1 and 2 (FIG. 5) (Spengler et al. 2005). % Inhibition=([I]*Vmax)/([I]+IC50) (Equation 1) v/v0=(1−(([E]0+[I]+Ki^app)−(([E]0+[I]+Ki^app)^2−4([E]0[I]))^1/2)/2[E]0 (Equation 2)

SUMO E1 or SUMO E2 = biological target: T2, SUMO E1 or SUMO E2 (Homo sapiens, UniProt Q9UBE0+Q9UBT2); assay: SUMOylation HTS assay, SUMO (AlphaScreen-BSA), SUMOylation of RanGAP1; format: biochemical
T2 sequence (Q9UBE0 1-346): T1 sequence (Q9UBE0 1-346)
T2 sequence (Q9UBT2 1-640): T1 sequence (Q9UBT2 1-640)
Protocol: (§1) A lead compound was selected, and is identified herein as MLS0437113 (FIG. 3).
(§2) Each singleton analog was analyzed to determine its inhibitory effect on SUMOylation and ubiquitination, tested both in the HTS format and gel-based format (FIG. 4).

[2] = system: Immortalized human hepatocytes, Fa2N-4 cells; assay: Hepatocyte toxicity, cell viability by cellular ATP levels; format: cell-based; conditions: concentrations up to 50 μM, 24 hrs
Protocol: FIG. 10 illustrates that E1 inhibitor MLS-0437113 has low toxicity in a normal liver cell line. Immortalized human hepatocytes, Fa2N-4 cells (XenoTech) were seeded at ˜50-60K cells/well, and incubated with a range of concentrations (0.01-50 μM) 1, in duplicate, for 24 hrs at 37° C., 5% CO2. Cell viability was determined by cellular ATP levels using the Luminescence ATP Detection Assay System (Tecan).

[3] = Stability in Tris buffer, parent remaining by HPLC-MS; format: physicochemical; conditions: for % Remaining after 60 min in 50 mM Tris (−BSA): without BSA; for % Remaining after 60 min in 50 mM Tris (+BSA): with BSA
Protocol: Stable compounds in Tris were tested with and without BSA. Amount of parent compound remaining was quantified using HPLC-MS (area under the curve (AUC) method).

SUMO E1 [4] = biological target: T1, SUMO E1; assay: Gel-based assay of SUMO-RanGap1, E1-SUMO and E2~SUMO thioester conjugate formation; format: biochemical; conditions: for Inhibitory effect on SUMOylation, comparison within the series: HTS and gel-based format, each inhibitor 10 μM (FIG. 4); for SUMO-RanGap1 and SUMO-E2 Conjugation Inhibition: strength in words
Protocol: FIG. 4 illustrates a representative assay to determine the efficacy of E1 inhibitors generated from a singleton probe. Stereo-specific effects of this series in inhibiting the SUMO E1. […] Negative and positive controls were reactions in the absence and presence of ATP. […] The compounds that are immediately right to them in the assays, MLS-0437114 and MLS-0437121, are their stereo-isomers, respectively. The stereo chemistry was determined by X-ray crystallography.
as §2
The molecular weight (MW), IC50, strength of SUMO-RanGap1 and SUMO-E2 conjugation inhibition of the SUMO E1 inhibitors derived from the singleton scaffold (see Table 1 above for structures) generated according to the embodiments herein are shown in Table 3 below.

ubiquitin E1 = biological target: T3, ubiquitin E1 (Homo sapiens, UniProt P22314); assay: Poly-ubiquitination assay using ubiquitin, ubiquitin E1, Ubc5 and Apc11; format: biochemical; conditions: SUMO E1 versus ubiquitin E1, derived from the IC50s of HTS assays
T3 sequence (P22314 1-1058): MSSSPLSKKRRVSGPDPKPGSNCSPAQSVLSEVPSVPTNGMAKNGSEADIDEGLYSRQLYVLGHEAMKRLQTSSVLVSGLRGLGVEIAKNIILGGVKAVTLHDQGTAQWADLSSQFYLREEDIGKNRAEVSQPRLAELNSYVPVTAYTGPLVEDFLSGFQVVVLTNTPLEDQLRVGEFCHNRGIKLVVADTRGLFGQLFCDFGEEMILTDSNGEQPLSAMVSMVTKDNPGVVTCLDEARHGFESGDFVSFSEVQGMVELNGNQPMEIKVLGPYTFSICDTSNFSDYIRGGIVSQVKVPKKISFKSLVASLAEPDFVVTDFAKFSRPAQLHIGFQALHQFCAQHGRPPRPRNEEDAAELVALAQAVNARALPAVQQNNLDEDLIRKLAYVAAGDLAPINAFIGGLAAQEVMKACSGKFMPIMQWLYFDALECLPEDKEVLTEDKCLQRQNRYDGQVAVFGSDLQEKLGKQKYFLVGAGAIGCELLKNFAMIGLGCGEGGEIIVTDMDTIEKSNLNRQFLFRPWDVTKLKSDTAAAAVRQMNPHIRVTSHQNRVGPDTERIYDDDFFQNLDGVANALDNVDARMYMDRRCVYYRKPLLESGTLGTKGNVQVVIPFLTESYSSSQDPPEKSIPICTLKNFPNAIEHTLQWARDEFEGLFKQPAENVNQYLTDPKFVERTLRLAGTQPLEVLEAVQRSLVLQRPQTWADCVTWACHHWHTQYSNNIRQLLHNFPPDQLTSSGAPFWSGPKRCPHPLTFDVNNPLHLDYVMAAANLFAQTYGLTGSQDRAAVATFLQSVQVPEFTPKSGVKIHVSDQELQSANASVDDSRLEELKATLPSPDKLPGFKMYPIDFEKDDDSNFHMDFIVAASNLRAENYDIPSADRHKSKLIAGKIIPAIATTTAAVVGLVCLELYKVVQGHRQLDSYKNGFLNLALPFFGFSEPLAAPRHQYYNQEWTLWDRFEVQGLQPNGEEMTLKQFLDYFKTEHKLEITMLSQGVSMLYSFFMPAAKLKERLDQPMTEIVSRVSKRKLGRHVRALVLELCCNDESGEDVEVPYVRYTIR
Protocol: as §1, §2

MCF-7 cells = assay: Inhibition of global SUMOylation in cells, Western blot with anti-SUMO antibodies; format: cell-based; conditions: compound in culture media 8-18 h
Protocol: Western blots (probed with anti-SUMO2/3 antibodies) of cell lysates from MCF-7 cells treated with the inhibitor. SUMO2/3 modifies many proteins as poly-SUMO chains, and is detected as high molecular weight smears.
In this experiment, the compound was added to cell culture media at the indicated concentrations for 8-18 h. Then SUMOylated proteins were detected using anti-SUMO antibodies.

SUMO (AlphaScreen-BSA) IC50 (SUMO E1 or SUMO E2) [µM] | % Remaining after 60 min in 50 mM Tris (−BSA) [3] [%] | SUMO-RanGap1 and SUMO-E2 Conjugation Inhibition (SUMO E1 [4]) | SMILES | further results
0.47 | 0 | Strong | COC(=O)C1=C(C(=O)OC)[C@@]2([C@@H](Cc3ccccc3)Nc3ccccc3)C=C[C@@H]1O2 (racemic) [MLS-0437113, Dimethyl 1-(2-Phenyl-1-(phenylamino)ethyl)-7-oxabicyclo[2.2.1]hepta-2,5-diene-2,3-dicarboxylate] | Inhibition of SUMO E1, potency in words (SUMO E1 [1]): similarly potent; Inhibition of SUMO E1, potency in words (SUMO E1 [1]; listed as MLS0437113): submicromolar inhibition; Toxicity in human hepatocytes [2]: low toxicity; Stability in Tris buffer, in words [3]: unstable; Inhibitory effect on SUMOylation, comparison within the series (SUMO E1 [4]): most potent inhibitor in this series
11.7 |  | Weak | COC(=O)C1=C(C(=O)OC)C2([C@H](Cc3ccccc3)Nc3ccccc3)C=CC1O2 (mixture of isomers) [MLS-0437114] | Inhibitory effect on SUMOylation, comparison within the series (SUMO E1 [4]): significantly less inhibitory
5.2 | 29 | Weak | COC(=O)C1=C(C(=O)OC)C2([C@@H](Cc3ccccc3)Nc3ccc(Cl)cc3)C=CC1O2 (mixture of isomers) [MLS-0437120] | Inhibitory effect on SUMOylation, comparison within the series (SUMO E1 [4]): more inhibitory than MLS-0437121
9.2 |  | Very Weak | COC(=O)C1=C(C(=O)OC)C2([C@H](Cc3ccccc3)Nc3ccc(Cl)cc3)C=CC1O2 (mixture of isomers) [MLS-0437121] | 
 | 48 |  | CCC[C@H](Nc1ccccc1)C12C=C[C@H](O1)C(C(=O)OC)=C2C(=O)OC (stereo in doubt) [MLS-0437313] | SUMO/ubiquitin Selectivity (ubiquitin E1): >100; % Remaining after 60 min in 50 mM Tris (+BSA) [3]: 89%
 | 86 |  | COC(=O)C1=C(C(=O)OC)C2([C@@H](Nc3ccccc3)c3ccc(C)cc3)C=C[C@@H]1O2 (stereo in doubt) [MLS-0437317] | Inhibition of global SUMOylation (MCF-7 cells): inhibited global SUMOylation in a dose-dependent manner; SUMO/ubiquitin Selectivity (ubiquitin E1): >100; Inhibition of SUMO E1, potency in words (SUMO E1 [1]): high potency; % Remaining after 60 min in 50 mM Tris (+BSA) [3]: 85%; Stability in Tris buffer, in words [3]: stable
6.9 |  | Weak | COC(=O)C1=C(C(=O)OC)C2([C@@H](Cc3ccccc3)Nc3ccc(C)cc3)C=CC1O2 (some centres unmarked) [MLS-0437109] | 
9.2 |  | Very Weak | COC(=O)C1=C(C(=O)OC)C2([C@H](Cc3ccccc3)Nc3ccc(C)cc3)C=CC1O2 (some centres unmarked) [MLS-0437110] | 
3.3 |  | Strong | C=CC[C@@H](Nc1ccccc1)C12C=CC(O1)C(C(=O)OC)=C2C(=O)OC (some centres unmarked) [MLS-0437111] | 
9.5 |  | Very Weak | COC(=O)C1=C(C(=O)OC)C2([C@@H](Cc3ccccc3)Nc3ccc(OC)cc3)C=CC1O2 (some centres unmarked) [MLS-0437118] | 
12.5 |  | Weak | C=CC[C@@H](Nc1ccc(Cl)cc1)C12C=CC(O1)C(C(=O)OC)=C2C(=O)OC (some centres unmarked) [MLS-0437126] | 
11.5 |  | Weak | C=CC[C@H](Nc1ccc(Cl)cc1)C12C=CC(O1)C(C(=O)OC)=C2C(=O)OC (some centres unmarked) [MLS-0437127] | 
 | 84 |  | COC(=O)C1=C(C(=O)OC)C2(C(Nc3ccccc3)c3ccc(F)cc3)C=C[C@@H]1O2 (some centres unmarked) [MLS-0437320] | SUMO/ubiquitin Selectivity (ubiquitin E1): >100; % Remaining after 60 min in 50 mM Tris (+BSA) [3]: 87%
 | 82 |  | COC(=O)C1=C(C(=O)OC)C2(C(Nc3ccccc3)c3ccc(OC(F)(F)F)cc3)C=C[C@@H]1O2 (some centres unmarked) [MLS-0437321] | SUMO/ubiquitin Selectivity (ubiquitin E1): >100; % Remaining after 60 min in 50 mM Tris (+BSA) [3]: 64%
